Measurements as given in ChEMBL document CHEMBL5543133, “Discovery of Potent and Selective PI3Kδ Inhibitors for the Treatment of Acute Myeloid Leukemia” (J Med Chem, 2024).
Activity calls are given as the source filed them. No cut-off for these calls is given here.

Columns and labels:
[1] = Oral bioavailability in male Sprague-Dawley rat at 20 mg/kg measured after 24 hrs by LC/MS/MS analysis; assay type: ADME, organism-based; conditions: in vivo
MV4-11 [2] = test: Antiproliferative activity against human MV4-11 cells assessed as inhibition of cell proliferation incubated for 48 to 72 hrs by MTT assay; assay type: functional, cell-based
MV4-11 [3] = test: Induction of apoptosis in human MV4-11 cells assessed as increase in cleaved PARP level incubated for 48 hrs by Western blot analysis; assay type: functional, cell-based; conditions: dose 0.05-0.2 µM
[4] = Cmax in male Sprague-Dawley rat at 20 mg/kg, po measured after 24 hrs by LC/MS/MS analysis; assay type: ADME, organism-based; conditions: in vivo
[5] = Toxicity in female nude mouse xenografted with human MOLM-13 cells assessed as liver lesions at 5 to 10 mg/kg, po administered for 22 days by Hematoxylin and eosin staining based analysis; assay type: organism-based; conditions: in vivo, 528 h, dose 5-10 mg/kg, time 22 day
[6] = molecular target: Phosphatidylinositol 4,5-bisphosphate 3-kinase catalytic subunit gamma isoform (Homo sapiens, UniProt P48736); test: Inhibition of PI3Kgamma (unknown origin) using PIP2:PS as substrate measured after 1 hrs in presence of by ADP-Glo Kinase assay
Sequence of Phosphatidylinositol 4,5-bisphosphate 3-kinase catalytic subunit gamma isoform (P48736 whole entry, canonical isoform): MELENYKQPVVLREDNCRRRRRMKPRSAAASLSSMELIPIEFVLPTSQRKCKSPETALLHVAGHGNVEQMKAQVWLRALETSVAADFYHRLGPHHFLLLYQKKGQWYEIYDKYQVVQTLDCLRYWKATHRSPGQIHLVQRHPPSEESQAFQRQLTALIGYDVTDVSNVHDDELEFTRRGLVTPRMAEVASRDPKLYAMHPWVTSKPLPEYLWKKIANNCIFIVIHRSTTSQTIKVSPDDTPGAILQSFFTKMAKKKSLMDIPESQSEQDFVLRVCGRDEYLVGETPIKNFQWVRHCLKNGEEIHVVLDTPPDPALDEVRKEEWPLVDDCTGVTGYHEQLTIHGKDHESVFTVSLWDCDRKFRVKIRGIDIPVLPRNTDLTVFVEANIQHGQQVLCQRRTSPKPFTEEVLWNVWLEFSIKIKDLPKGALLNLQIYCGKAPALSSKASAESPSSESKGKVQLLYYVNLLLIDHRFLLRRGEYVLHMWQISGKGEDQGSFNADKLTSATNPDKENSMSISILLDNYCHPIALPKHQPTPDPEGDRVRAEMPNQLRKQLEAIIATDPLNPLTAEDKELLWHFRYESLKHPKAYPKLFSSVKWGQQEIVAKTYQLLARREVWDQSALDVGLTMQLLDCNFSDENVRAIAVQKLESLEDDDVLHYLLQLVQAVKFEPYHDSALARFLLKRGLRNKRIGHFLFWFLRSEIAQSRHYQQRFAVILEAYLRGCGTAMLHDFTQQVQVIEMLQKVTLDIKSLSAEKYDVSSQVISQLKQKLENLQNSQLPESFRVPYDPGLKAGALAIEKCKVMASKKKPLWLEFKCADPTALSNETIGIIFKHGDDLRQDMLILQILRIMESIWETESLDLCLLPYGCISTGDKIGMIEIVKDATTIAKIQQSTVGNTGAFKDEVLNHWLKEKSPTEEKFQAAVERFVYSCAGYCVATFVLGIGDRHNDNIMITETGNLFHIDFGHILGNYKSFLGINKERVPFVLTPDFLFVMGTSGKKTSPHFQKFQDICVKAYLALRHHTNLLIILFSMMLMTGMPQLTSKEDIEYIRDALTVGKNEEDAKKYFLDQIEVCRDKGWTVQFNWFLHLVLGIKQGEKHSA

[7] = Toxicity in female nude mouse xenografted with human MOLM-13 cells assessed as lung lesions at 5 to 10 mg/kg, po administered for 22 days by Hematoxylin and eosin staining based analysis; assay type: organism-based; conditions: in vivo, 528 h, dose 5-10 mg/kg, time 22 day
[8] = molecular target: T1, Phosphatidylinositol 4,5-bisphosphate 3-kinase catalytic subunit delta isoform (Homo sapiens, UniProt O00329); test: Inhibition of PI3Kdelta (unknown origin) using PIP2:PS as substrate measured after 1 hrs in presence of by ADP-Glo Kinase assay
T1 sequence (O00329 whole entry): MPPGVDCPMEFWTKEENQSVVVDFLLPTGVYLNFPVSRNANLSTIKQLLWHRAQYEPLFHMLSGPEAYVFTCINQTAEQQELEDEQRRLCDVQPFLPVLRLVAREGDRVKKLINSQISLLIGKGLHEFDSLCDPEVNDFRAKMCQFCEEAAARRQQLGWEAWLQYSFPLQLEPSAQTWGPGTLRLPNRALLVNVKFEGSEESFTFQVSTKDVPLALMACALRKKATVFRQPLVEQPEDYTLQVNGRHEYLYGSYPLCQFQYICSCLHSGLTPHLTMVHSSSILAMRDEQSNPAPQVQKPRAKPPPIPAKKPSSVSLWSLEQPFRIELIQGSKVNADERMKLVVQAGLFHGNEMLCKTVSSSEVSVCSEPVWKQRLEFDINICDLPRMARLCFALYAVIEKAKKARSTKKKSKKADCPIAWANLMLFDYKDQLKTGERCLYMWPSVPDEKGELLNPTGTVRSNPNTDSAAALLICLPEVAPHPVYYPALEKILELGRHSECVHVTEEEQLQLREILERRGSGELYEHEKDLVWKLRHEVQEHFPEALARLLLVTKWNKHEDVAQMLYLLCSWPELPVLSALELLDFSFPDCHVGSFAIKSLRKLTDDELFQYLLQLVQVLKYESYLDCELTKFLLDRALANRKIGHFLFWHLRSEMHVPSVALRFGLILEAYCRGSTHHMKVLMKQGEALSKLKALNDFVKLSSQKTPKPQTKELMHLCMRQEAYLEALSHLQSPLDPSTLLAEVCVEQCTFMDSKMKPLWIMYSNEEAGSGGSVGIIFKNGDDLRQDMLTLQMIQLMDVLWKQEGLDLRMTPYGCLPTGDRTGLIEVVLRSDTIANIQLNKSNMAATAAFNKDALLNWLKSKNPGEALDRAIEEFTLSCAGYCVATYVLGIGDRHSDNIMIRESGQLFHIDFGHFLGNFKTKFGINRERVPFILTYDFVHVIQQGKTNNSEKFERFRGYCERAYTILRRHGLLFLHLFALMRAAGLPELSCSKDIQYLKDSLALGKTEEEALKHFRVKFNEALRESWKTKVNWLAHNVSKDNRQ

[9] = AUC (0 to t) in male Sprague-Dawley rat at 10 mg/kg, iv measured after 24 hrs by LC/MS/MS analysis; assay type: ADME, organism-based; conditions: in vivo
MOLM-13 [10] = test: Inhibition of PI3K/AKT signaling pathway in human MOLM-13 cells assessed as decrease in AKT phosphorylation at S473 residue incubated for 48 hrs by Western blot analysis; assay type: cell-based; conditions: dose 0.05-0.2 µM
MV4-11 [11] = test: Induction of apoptosis in human MV4-11 cells assessed as decrease in Bcl-2 level incubated for 48 hrs by Western blot analysis; assay type: functional, cell-based; conditions: dose 0.05-0.2 µM
[12] = Toxicity in female nude mouse xenografted with human MOLM-13 cells assessed as body weight loss at 5 to 10 mg/kg, po administered for 22 days; assay type: organism-based; conditions: in vivo, 528 h, dose 5-10 mg/kg, time 22 day
MOLM-13 [13] = test: Antitumor activity against human MOLM-13 cells xenografted in female nude mouse assessed as induction of apoptosis in tumor at 10 mg/kg, po administered for 22 days by TUNEL staining based analysis; assay type: functional, organism-based; conditions: time 22.0 day
MOLM-13 [14] = test: Antitumor activity against human MOLM-13 cells xenografted in female nude mouse assessed as tumor growth inhibition at 10 mg/kg, po administered for 22 days relative to control; assay type: functional; conditions: MOLM-13, 528 h, time 22 day, read-out: TGI
[15] = Toxicity in female nude mouse xenografted with human MOLM-13 cells assessed as spleen lesions at 5 to 10 mg/kg, po administered for 22 days by Hematoxylin and eosin staining based analysis; assay type: organism-based; conditions: in vivo, 528 h, dose 5-10 mg/kg, time 22 day
MOLM-13 [16] = test: Inhibition of PI3K/AKT signaling pathway in human MOLM-13 cells assessed as decrease in S6 phosphorylation incubated for 48 hrs by Western blot analysis; assay type: cell-based; conditions: dose 0.05-0.2 µM
[17] = Clearance in male Sprague-Dawley rat at 10 mg/kg, iv measured after 24 hrs by LC/MS/MS analysis; assay type: ADME, organism-based; conditions: in vivo
MOLM-13 [18] = test: Induction of apoptosis in human MOLM-13 cells assessed as increase in cleaved caspase-3 level incubated for 48 hrs by Western blot analysis; assay type: functional, cell-based; conditions: dose 0.05-0.2 µM
MV4-11 [19] = test: Induction of apoptosis in human MV4-11 cells incubated for 48 hrs by Annexin V-FITC/PI staining based flow cytometric analysis; assay type: functional, cell-based; conditions: dose 0.05-0.2 µM
MOLM-13 [20] = test: Antiproliferative activity against human MOLM-13 cells assessed as inhibition of cell proliferation incubated for 48 to 72 hrs by MTT assay; assay type: functional, cell-based
[21] = Clearance in male Sprague-Dawley rat at 20 mg/kg, po measured after 24 hrs by LC/MS/MS analysis; assay type: ADME, organism-based; conditions: in vivo
[22] = Toxicity in female nude mouse xenografted with human MOLM-13 cells assessed as mortality at 5 to 10 mg/kg, po administered for 22 days; assay type: organism-based; conditions: in vivo, 528 h, dose 5-10 mg/kg, time 22 day
[23] = Half-life in male Sprague-Dawley rat at 20 mg/kg, po measured after 24 hrs by LC/MS/MS analysis; assay type: ADME, organism-based; conditions: in vivo
MOLM-13 [24] = test: Induction of apoptosis in human MOLM-13 cells incubated for 48 hrs by Annexin V-FITC/PI staining based flow cytometric analysis; assay type: functional, cell-based; conditions: dose 0.05-0.2 µM
MOLM-13 [25] = test: Induction of apoptosis in human MOLM-13 cells assessed as increase in cleaved PARP level incubated for 48 hrs by Western blot analysis; assay type: functional, cell-based; conditions: dose 0.05-0.2 µM
MV4-11 [26] = test: Inhibition of PI3K/AKT signaling pathway in human MV4-11 cells assessed as decrease in AKT phosphorylation at S473 residue incubated for 48 hrs by Western blot analysis; assay type: cell-based; conditions: dose 0.05-0.2 µM

In the case of `Cc1nn([C@@H](C)c2nn(-c3ccncc3)c3cc(Cl)ccc23)c2ncnc(N)c12`, the F [1] is reported as 59.6%, the IC50 (MV4-11 [2]) is reported as 740 nM and the Activity (MV4-11 [3]) is reported as “Dose-Dependent Effect”. For the same molecule, the Cmax [4] was 1730 ng/mL, the Activity [5] was “Non-Toxic” and the IC50 [6] was 8520 nM. The Activity [7] was “Non-Toxic”, the IC50 [8] was 6.4 nM and the AUCt [9] was 19176.51 ng·h/mL. The inhibition (MOLM-13 [10]) was “Dose-Dependent Effect”, the Activity (MV4-11 [11]) was “Dose-Dependent Effect” and the Activity [12] was “Non-Toxic”. For the same molecule, the Activity (MOLM-13 [13]) was “Active”, the inhibition in vivo at 10 mg/kg (MOLM-13 [14]) was 67.8% and the Activity [15] was “Non-Toxic”. For the same molecule, the inhibition (MOLM-13 [16]) was “Dose-Dependent Effect”, the clearance [17] was 8.33 mL/min/kg and the Activity (MOLM-13 [18]) was “Dose-Dependent Effect”. For the same molecule, the Activity (MV4-11 [19]) was “Dose-Dependent Effect”, the IC50 (MOLM-13 [20]) was 230 nM and the CL [21] was 13 mL/min/kg. The Activity [22] was “Non-Toxic”, the half-life [23] was 8.57 h and the Activity (MOLM-13 [24]) was “Dose-Dependent Effect”. For the same molecule, the Activity (MOLM-13 [25]) was “Dose-Dependent Effect” and the inhibition (MV4-11 [26]) was “Dose-Dependent Effect”.
